Consider one compound from article PMC8851282, “Senolysis induced by 25-hydroxycholesterol targets CRYAB in multiple cell types” (iScience, 2022).

Assay [1] relates to FAPs. In words: Cell viability assay (cell counting kit-8) of senescent and non-senescent FAPs treated with inhibitors. The format is cell-based, mouse. The conditions noted are these: for IC50: Mus musculus, FAPs. As for the experimental part:
Figure 3 25HC is a senolytic in multiple muscle cell types (A) Targets, compounds, and mechanisms. (B) Timeline of cell viability assay with inhibitors. Cells were pre-cultured for 24 h, treated with Doxo for 24 h, and then treated with inhibitors. Cell viability was analyzed from day 0–7. (C–E) Effects of inhibitors on viability of FAPs, SCs, and HSMMs. Cells were treated with inhibitors at the indicated concentrations. Cell viability was analyzed on day 3 (HSMMs) or 5 (FAPs and SCs). Blue and red dots indicate non-senescent (NS) and senescent (SEN), respectively. The average value at 0 μM for each group was set at 100% cell viability. p values versus NS were obtained using unpaired two-tailed Student’s t test. ∗p < 0.05, ∗∗p < 0.01, and ∗∗∗p < 0.001.
Figure 4 EC50 fitted curves (triplicates) of inhibitor effects at 3 and 7 days in FAPS and SCs EC50 was defined as the concentration of inhibitors that provokes a response halfway between baseline and maximum senolytic activity. EC50 values were determined by four- parameter logistic modeling using GraphPad Prism 8.0.
Hind limb muscles were digested in DMEM containing 0.5% (w/v) collagenase type II (Worthington) for 90 min at 37 °C with trituration and passed through a 40-μm nylon mesh. Erythrocytes were eliminated by treating with BD Pharm Lyse (BD Biosciences). Cells were resuspended in a washing buffer of PBS with 2% FBS and stained with antibodies for 30 min at 4 °C as described ([Kamizaki et al., 2017]). FAPs and SCs were isolated from the suspension by FACS (Aria II, BD Biosciences) using anti-CD31, CD45, Sca-1, PDGFR and VCAM1 antibodies. FAPs were identified as Sca1/PDGFR-positive and CD31-, CD45- and VCAM1-negative cells ([Uezumi et al., 2010]). SCs were identified as VCAM1-positive and CD31-, CD45-, Sca-1 and PDGFR-negative cells ([Liu et al., 2015]).
(§1) All experiments were performed in incubators at 37 °C, 3% O2 and 5% CO2. Senescence was induced by treatment with either Doxo (250 nM for 24 h) ([Demaria et al., 2017]) or X-irradiation (10 Gy) ([Limbad et al., 2020]). For cell culture studies using 25HC, it was used at the indicated concentrations in the media.
FAPs and SCs were cultured on Matrigel-coated dishes (BD Biosciences) in growth medium (GM) consisting of DMEM plus 10% FBS, 1% penicillin-streptomycin and 10% MyoCult (STEMCELL Technologies) for 7 days. Human myogenic cell HSMMs (Lonza) were maintained according to the manufacturer’s instructions with SkGM-2 medium (Lonza).
Cell viability was assessed using a cell counting kit-8 from Dojindo Molecular Technologies, Inc (Cat CK04-20). Cells were incubated with culture media + 10% kit cell viability reagent, 150 μL/well in 96-well plates for 2 h. The supernatant was transferred to a new 96-well plate and absorbance read at 450 nm as recommended in the product datasheet.
A general note: Tetrazolium dyes change colour on reduction, which living cells bring about.

For assay [2], the system named is human lung fibroblasts (IMR-90). In words: Cell viability assay of NS and SEN IMR-90 cells treated with CRYAB and HMOX1 inhibitors. It counts as cell-based. The conditions noted are these: 250 nM Doxo-induced senescence; viability after 72 h; 25HC at 10 or 50 μM. As for the experimental part:
The average value of DMSO was set at 1. (B and D) Effects of CRYAB and HMOX1 inhibitors on DMSO-treated NS or Doxo-treated SEN cells; (B) mDFs, (D) IMR-90s. Cells were treated with the inhibitors at the indicated concentrations. Cell viability was measured after 72 h. (C) IMR-90 qRT-PCR. For qPCR: mean +/- SE, n =4, ∗p< 0.05, ∗∗p< 0.01, ∗∗∗p<0.001, ∗∗∗∗p<0.0001 by Dunnett’s multiple comparisons test vs DMSO. For cell viability assays: mean +/- SE, n =3, ∗∗p< 0.01, ∗∗∗p<0.001, ∗∗∗∗p<0.0001 vs 0 mM by student’s t test.
as §1
IMR-90 cells were cultured in DMEM with 10% FBS. […]
Cell viability was assessed using a cell counting kit-8 from Dojindo Molecular Technologies, Inc (Cat CK04-20). […] The supernatant was transferred to a new 96-well plate and absorbance read at 450 nm as recommended in the product datasheet.

Usually IC50 stands for the concentration that gives 50% inhibition. Read a low IC50 as greater potency in that assay. As to `C[C@H](CCCC(C)(C)O)[C@H]1CC[C@H]2[C@@H]3CC=C4C[C@@H](O)CC[C@]4(C)[C@H]3CC[C@]12C` [25HC, 25-hydroxycholesterol], the “viability of senescent versus non-senescent FAPs” value in assay [1] (Doxo-induced senescence, viability on day 5, 25HC at concentrations between 0.1 and 1 μM) was “specifically decreased the viability of senescent FAPs”. The IC50 in assay [1] (72 h, 3 days in culture) worked out at 1700 nM; in assay [1] (168 h, 7 days in culture), 1200 nM. For the same compound, in assay [2], the “senolysis in IMR-90 cells” value was “induced significant senolysis”.
